Laboratory results: publication PMC7845594, “Novel Immune Modulators Enhance Caenorhabditis elegans Resistance to Multiple Pathogens” (mSphere, 2021)

Tested on: C. elegans transcriptome
Test: Transcriptome profiling (Affymetrix microarrays), differentially expressed genes
Type: in vivo, Caenorhabditis elegans
Settings: for Fold Change: downregulated genes
Method in brief: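 Wild-type young-adult C. elegans (~6,000 per condition, triplicate) were exposed to each drug at 100 µM or to DMSO for 8 h without pathogen. TRIzol/RNeasy RNA was profiled on Affymetrix arrays. Fold changes were normalized to each gene's mean across conditions and clustered by Euclidean distance with average linkage.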

[1] = Downregulated genes, Affy_ID 171867_x_at
[2] = Downregulated genes, Affy_ID 176276_s_at

## CCN(CC)/N=N/c1ccc(C(=O)O)cc1 [LK35]
Affy_ID 171811_s_at, listed under genes K01D12.7 (LK34, LK38), C57047 (LK35), K01D12.15 (LK38)
  Fold Change: 0.292
Affy_ID 171867_x_at, listed under genes C09B9.6, F36H12.7, K07F5.1, R05F9.13, R13H9.2, R13H9.4, T13F2.10, T13F2.11, Y59E9AR.1, Y59E9AR.7, ZK354.1
  Fold Change: 0.2025
Affy_ID 171880_x_at, listed under genes C24D10.7 and C24D10.8
  Fold Change: 0.4703
[1]
  Fold Change, gene Y59E9AR.1: 0.2025
  Fold Change, gene Y59E9AR.7: 0.2025
  Fold Change, gene ZK354.1: 0.2025
  Fold Change, gene ZK354.10: 0.2025
  Fold Change, gene ZK354.11: 0.2025
  Fold Change, gene ZK354.4: 0.2025
  Fold Change, gene ZK354.5: 0.2025
Downregulated genes, Affy_ID 171916_s_at
  Fold Change, gene ZK131.11: 0.3792
Downregulated genes, Affy_ID 172113_x_at
  Fold Change, gene Y59H11AM.1: 0.2252
Downregulated genes, Affy_ID 172177_x_at
  Fold Change, gene Y71H2AL.C: 0.4472
Downregulated genes, Affy_ID 172214_x_at
  Fold Change, gene ZK525.1: 0.281
Downregulated genes, Affy_ID 172486_x_at
  Fold Change, gene T23B7.1: 0.3276
Downregulated genes, Affy_ID 172627_x_at
  Fold Change, gene Y105C5A.13: 0.07461
Downregulated genes, Affy_ID 172704_x_at
  Fold Change, gene T28H11.6: 0.2084
Downregulated genes, Affy_ID 172734_x_at
  Fold Change, gene ZK1248.4: 0.2437
Downregulated genes, Affy_ID 172798_x_at
  Fold Change, gene ZK546.3: 0.1152
Downregulated genes, Affy_ID 172871_x_at
  Fold Change, gene ZK131.7: 0.3252
Downregulated genes, Affy_ID 172887_x_at
  Fold Change, gene ZK1248.6: 0.1434
Downregulated genes, Affy_ID 172900_x_at
  Fold Change, gene ZK546.6: 0.1383
Downregulated genes, Affy_ID 172938_x_at
  Fold Change, gene ZK1251.6: 0.1992
Downregulated genes, Affy_ID 173326_s_at
  Fold Change, gene Y43F8B.2: 0.3741
Downregulated genes, Affy_ID 173756_at
  Fold Change, gene T27E4.7: 0.207
Downregulated genes, Affy_ID 174102_at
  Fold Change, gene Y54G2A.7: 0.2822
Downregulated genes, Affy_ID 175557_at
  Fold Change, gene ZK809.8: 0.3895
Downregulated genes, Affy_ID 175995_at
  Fold Change, gene ZK112.1: 0.2683
Downregulated genes, Affy_ID 176131_at
  Fold Change, gene Y119D3B.13: 0.2184
[2]
  Fold Change, gene Y69A2AR.12: 0.2706
  Fold Change, gene Y69A2AR.25: 0.2706
Downregulated genes, Affy_ID 176285_s_at
  Fold Change, gene Y71H2AM.13: 0.4282
Downregulated genes, Affy_ID 176544_at
  Fold Change, gene Y71G12B.4: 0.3363
Downregulated genes, Affy_ID 177004_s_at
  Fold Change, gene Y54G2A.14: 0.3979
Downregulated genes, Affy_ID 177183_s_at
  Fold Change, gene Y73B6BL.24: 0.3786
Downregulated genes, Affy_ID 177190_at
  Fold Change, gene Y71H2AL.1: 0.2701
Downregulated genes, Affy_ID 179491_at
  Fold Change, gene ZK669.2: 0.1961
Downregulated genes, Affy_ID 179513_at
  Fold Change, gene ZK550.2: 0.2553
Downregulated genes, Affy_ID 179815_at
  Fold Change, gene T23F4.3: 0.0609
Downregulated genes, Affy_ID 180145_s_at
  Fold Change, gene Y51H4A.7: 0.2617
Downregulated genes, Affy_ID 180223_s_at
  Fold Change, gene T23F4.1: 0.03953
Downregulated genes, Affy_ID 180561_at
  Fold Change, gene W04B5.2: 0.4474
Downregulated genes, Affy_ID 182193_at
  Fold Change, gene ZK484.5: 0.3211
Downregulated genes, Affy_ID 182843_at
  Fold Change, gene Y44A6C.1: 0.3152
Downregulated genes, Affy_ID 184558_at
  Fold Change, gene Y45F10A.5: 0.1919
Downregulated genes, Affy_ID 184855_at
  Fold Change, gene T23B12.8: 0.1557
Downregulated genes, Affy_ID 185106_at
  Fold Change, gene Y105C5B.5: 0.254
Downregulated genes, Affy_ID 186120_at
  Fold Change, gene W01A11.6: 0.4275
Downregulated genes, Affy_ID 186153_s_at
  Fold Change, gene T27A10.7: 0.3382
Downregulated genes, Affy_ID 186886_s_at
  Fold Change, gene Y18D10A.23: 0.3476
Downregulated genes, Affy_ID 187121_at
  Fold Change, gene Y105C5A.24: 0.3662
Downregulated genes, Affy_ID 188470_s_at
  Fold Change, gene ZC416.6: 0.2458
Downregulated genes, Affy_ID 188823_s_at
  Fold Change, gene T25C12.3: 0.2936
Downregulated genes, Affy_ID 189095_at
  Fold Change, gene ZK593.1: 0.3436
Downregulated genes, Affy_ID 189882_at
  Fold Change, gene ZK484.2: 0.286
Downregulated genes, Affy_ID 190307_s_at
  Fold Change, gene ZK131.4: 0.2791
Downregulated genes, Affy_ID 191017_at
  Fold Change, gene Y40D12A.2: 0.3228
Downregulated genes, Affy_ID 191887_s_at
  Fold Change, gene W07B8.5: 0.2934
Downregulated genes, Affy_ID 192992_at
  Fold Change, gene Y51A2D.13: 0.2251
Downregulated genes, Affy_ID 193144_at
  Fold Change, gene Y69E1A.5: 0.316
Downregulated genes, Affy_ID 193715_at
  Fold Change, gene Y111B2A.13: 0.4867
Downregulated genes, Affy_ID 193926_at
  Fold Change, gene Y48A6B.7: 0.205
Downregulated genes, Affy_ID 194066_s_at
  Fold Change, gene ZK666.7: 0.1175
Gene AC3.7, Affy_ID 190879_at
  Fold Change: 0.1754
Gene B0035.13, Affy_ID 188123_at
  Fold Change: 0.2664
Gene C02F5.7, Affy_ID 191772_at
  Fold Change: 0.3854
Gene C04G2.4, Affy_ID 172853_x_at
  Fold Change: 0.1724
Gene C05C10.4, Affy_ID 189921_at
  Fold Change: 0.2517
Gene C05C12.3, Affy_ID 183355_s_at
  Fold Change: 0.2041
Gene C06A12.3, Affy_ID 183322_at
  Fold Change: 0.4777
Gene C06G3.5, Affy_ID 189941_at
  Fold Change: 0.4389
Gene C08E3.1, Affy_ID 172309_x_at
  Fold Change: 0.09218
Gene C08E3.13, Affy_ID 172565_x_at
  Fold Change: 0.08084
Gene C08F11.13, Affy_ID 175229_at
  Fold Change: 0.2613
Gene C14C6.2, Affy_ID 183566_at
  Fold Change: 0.2902
Gene C17B7.2, Affy_ID 181325_s_at
  Fold Change: 0.2818
Gene C18G1.2, Affy_ID 191147_at
  Fold Change: 0.4346
Gene C18H9.6, Affy_ID 187412_at
  Fold Change: 0.3068
Gene C24A3.6, Affy_ID 175541_at
  Fold Change: 0.3015
Gene C27H5.4, Affy_ID 181334_s_at
  Fold Change: 0.3156
Gene C29F4.2, Affy_ID 190884_at
  Fold Change: 0.3931
